From patent publication US20220204577A1, “Synthetic Peptides With Affinity for the Interleukin-10 Receptor, Pharmaceutical Composition and Use Thereof as Immunomodulators for Treating Autoimmune, Inflammatory or Allergic Diseases” (Universidade Federal de Uberlândia, priority 2019, published 2022)

B1: rIL10: recombinant IL-10, used as control (protein, UniProt P22301 19-178, looked up)
Interleukin-10: SPGQGTQSENSCTHFPGNLPNMLRDLRDAFSRVKTFFQMKDQLDNLLLKESLLEDFKGYLGCQALSEMIQFYLEEVMPQAENQDPDIKAHVNSLGENLKTLRLRLRRCHRFLPCENKSKAVEQVKNAFNKLQEKGIYKAMSEFDIFINYIEAYMTMKIRN

Experiments:
IFN signaling pathway = IFN signaling pathway (SEAP) in Jurkart-Dual reporter cells, peptide pre-treatment then IFN-α; format: cell-based; conditions: peptide then IFN-α, 48 hours
Experimental: Therefore, we cannot confirm whether they were able to affect the activation pathway (FIGS. 6A, B, and C) in the same or better way than the negative control (rIL-10). In the assays shown in FIGS. 5 (A, B, and C) and 6 (A, B, and C), IFN expression was analyzed in Jurkart-Dual reporter cells. In the assays shown in FIGS. 5 A, B, and C, cells were treated with peptides for 1 hour followed by the addition of IFN-α (104 EU/ml). Secreted Embryonic Alkaline Phosphatase (SEAP) production was measured after 12 hours of treatment (FIG. 5A), 24 hours of treatment (FIG. 5B), and 48 hours of treatment (FIG. 5C). In the assays shown in FIGS. 6 A, B, and C, cells were treated with IFN-α (104 EU/ml) for 1 hour, and then peptides were added. SEAP production was measured after (D) 12 hours of treatment (E) 24 hours of treatment, and (F) 48 hours of treatment. IFN-α (104 EU/mL) was used as a positive control and rIL-10 (0.4 ng/mL) as a negative control. * P<0.05.

NFκB [1] = test: NFkB expression in Jurkart-Dual reporter cells, peptide pre-treatment then TNF-α; format: cell-based; conditions: peptide then TNF-α
Experimental: The assay was then performed using TNF-α as the activating molecule not only in the control, but after a pre-treatment with the synthesized peptides Pep 1, Pep 2, Pep 3, and Pep 4 at various concentrations. […] In the assays shown in FIGS. 3 A, B, and C, NFkB expression analysis was performed in Jurkart-Dual reporter cells. Cells were treated with peptides for 1 hour and TNF-α (200 ng/ml) was added. Luciferase was measured after 12 hours of treatment (FIG. 3A), 24 hours of treatment (FIG. 3B), and 48 hours of treatment (FIG. 3C).

TLR4 signaling pathway [2] = test: TLR4 signaling pathway (SEAP) in HEK cells, peptide pre-treatment then LPS; format: cell-based; conditions: 12 hours
Experimental: (§1) HEK cells were used to investigate the ability of the peptides to reduce activation of the TLR4 signaling pathway after 12 hours of treatment.
(§2) In the assay shown in FIG. 7A, the cells were treated with peptides for 1 hour, then LPS (100 ng/ml) was added. SEAP production was measured after 12 hours of treatment. In the assay shown in FIG. 7B, the cells were treated with LPS (100 ng/ml) for 1 hour, then the peptides were added. SEAP production was measured after 12 hours of treatment. LPS (100 ng/mL) was used as positive control and IL-10 (0.4 ng/mL) as negative control. * P<0.05; ** P<0.005; *** P<0.0005.

TLR4 signaling pathway [3] = test: TLR4 signaling pathway (SEAP) in HEK cells, LPS pre-treatment then peptides; format: cell-based; conditions: 12 hours
Experimental: as §1, §2

NFκB [4] = test: NFkB expression in Jurkart-Dual reporter cells, TNF-α pre-treatment then peptides; format: cell-based; conditions: TNF-α then peptide
Experimental: Then another assay was performed in which the cells were pretreated with TNF-α and the peptides were added later. […] In the assays shown in FIGS. 4 A, B, and C the analysis of NFkB expression was performed in Jurkart-Dual reporter cells. Cells were treated with TNF-α (200 ng/ml) for 1 hour and the peptides were added. Luciferase was measured after 12 hours of treatment (FIG. 4A), 24 hours of treatment (FIG. 4B), and 48 hours of treatment (FIG. 4C). TNF-α (200 ng/mL) was used as a positive control and rIL-10 (Recombinant Interleukin-10) (0.4 ng/mL) as a negative control. * P<0.05; ** P<0.005; *** P<0.0005.

[5] = system: NFκB, IFN, or TLR4 signaling pathways; test: Reporter cell lines treated with peptides alone (no activating molecule); format: cell-based; conditions: various concentrations, 12, 24 and 48 hours
Experimental: To investigate the ability of the peptides to interfere with the NFkB, IFN, and TLR4 pathways, reporter cell lines were used. To analyze whether the isolated peptides (without activation molecules) could induce any type of activation, the isolated peptides were tested in the cell lines during 12, 24, and 48 hours of treatment. […] As an example, FIGS. 2A, 2B, and 2C show an analysis of NFkB expression after stimulation with the synthesized peptides described in this report. The cells were treated with the synthesized peptides Pep 1, Pep 2, Pep 3, and Pep 4 at various concentrations for 12, 24, and 48 hours, without activating molecules. Luciferase was then measured after 12 hours of treatment (FIG. 2A), 24 hours of treatment (FIG. 2B), and 48 hours of treatment (FIG. 2C). […] TNF-α (200 ng/mL) was used as a positive control.

[6] = Dynamic Light Scattering (DLS), aggregation behavior in solution; format: physicochemical
Experimental: The aggregation behavior of peptides Pep 1, Pep 2, Pep 3, and Pep 4 in solution was determined by Dynamic Light Scattering (DLS), as shown in FIG. 1E. All synthetic peptides were approximately 100% monomeric in solution. The measured hydrodynamic radius of the peptides was similar for Pep 1 (0.82 nm), Pep 2 ([…]), Pep 3 (0.79 nm), and Pep 4 (0.86 nm).

[7] = system: mouse basophilic leukemia cells transfected with the human FcεRI IgE receptor (hRBL); test: IgE-mediated release of β-hexosaminidase (basophil degranulation) in hRBL cells; format: cell-based; conditions: rIL10 treatment; versus cells treated with Bet v1 alone; serum from seven birch pollen-allergic donors
Experimental: The effect of Pep 1 on IgE-mediated release was studied using mouse basophilic leukemia cells transfected with the human FcεRI IgE receptor (hRBL). The hRBL cells were sensitized with serum from seven patients allergic to birch pollen. The cells were stimulated with the antigen and its interaction with immobilized IgEs resulting in the release of β-hexosaminidase.
When cells were treated with a composition containing Pep 1 to 1 μM (FIG. 10A) or rIL10 (FIG. 10B), the amount of Bet v 1 required to induce the same amount of degranulation was higher than for cells treated with Bet v1 alone (P<0.05). Amount of rBet v 1 (ng/mL) required to induce half the release of β-hexosaminidase using serum from seven birch pollen-allergic donors after treatment with Pep 1 (A) (P<0.05) and rIL10 (B) * P<0.05.

[8] = peptide 1 hour, then LPS 100 ng/ml, 100 μM
[9] = LPS 100 ng/ml 1 hour, then peptide, 100 μM

Row | Molecule | activation of the IFN signaling pathway (IFN signaling pathway; 100 μM) | NFκB activation (NFκB [1]; 0.01 μM, 48 hours) | TLR4 pathway activation (TLR4 signaling pathway [2]; [8]) | activation of the TLR4 pathway (TLR4 signaling pathway [3]; [9]) | activation of the TLR4 pathway (TLR4 signaling pathway [3]; LPS then peptide, 0.5 μM) | activation of the TLR4 pathway (TLR4 signaling pathway [3]; LPS then peptide, 10 μM) | NFkB expression (luciferase) [5] | hydrodynamic radius [6] [nm] | further results
1 | Pep 4: synthetic peptide with affinity to the Interleukin-10 receptor, SEQ ID No 04, linear chain (HCMTGSRATFPSAPGGGS; INTERLEUKIN-10 MIMETIC PEPTIDE) | activation of the pathway was reduced | reduced pathway activation | significantly reduced pathway activation | activation of the TLR4 pathway was more significantly reduced | activation of the TLR4 pathway was more significantly reduced | activation of the TLR4 pathway was more significantly reduced | unable to elicit any response | 0.86 | activation of the IFN signaling pathway (IFN signaling pathway; 0.05 μM): activation of the pathway was reduced; NFκB activation (NFκB [1]; 0.005 μM, 48 hours): reduced pathway activation; NFκB activation (NFκB [1]; 0.05 μM, 48 hours): reduced pathway activation; TLR4 pathway activation (TLR4 signaling pathway [2]; peptide then LPS, 1 μM): significantly reduced pathway activation; TLR4 pathway activation (TLR4 signaling pathway [2]; peptide then LPS, 5 μM): significantly reduced pathway activation; TLR4 pathway activation (TLR4 signaling pathway [2]; peptide then LPS, 10 μM): significantly reduced pathway activation; activation of the TLR4 pathway (TLR4 signaling pathway [3]; LPS then peptide, 1 μM): activation of the TLR4 pathway was more significantly reduced; activation of the TLR4 pathway (TLR4 signaling pathway [3]; LPS then peptide, 5 μM): activation of the TLR4 pathway was more significantly reduced; NFκB signaling (NFκB [4]; 0.5 μM, 12 hours): able to decrease NFκB signaling
2 | Pep 3: synthetic peptide with affinity to the Interleukin-10 receptor, SEQ ID No 03, linear chain (HCFDTQRMEFRMPPGGGS; INTERLEUKIN-10 MIMETIC PEPTIDE) | activation of the pathway was reduced | reducing pathway activation | significantly reduced pathway activation | activation of the TLR4 pathway was more significantly reduced | activation of the TLR4 pathway was more significantly reduced | activation of the TLR4 pathway was more significantly reduced | unable to elicit any response | 0.79 | NFκB activation (NFκB [1]; 0.05 μM, 12 hours): reducing pathway activation; activation of the TLR4 pathway (TLR4 signaling pathway [3]; LPS then peptide, 0.1 μM): activation of the TLR4 pathway was more significantly reduced; NFκB signaling (NFκB [4]; 0.001 μM, 24 hours): less activation of the analyzed signaling pathway; NFκB signaling (NFκB [4]; 0.005 μM, 12 hours): able to decrease NFκB signaling; NFκB signaling (NFκB [4]; 0.005 μM, 24 hours): less activation of the analyzed signaling pathway; NFκB signaling (NFκB [4]; 10 μM, 24 hours): less activation of the analyzed signaling pathway
3 | B1 |  |  |  |  |  |  |  |  | amount of Bet v 1 required to induce the same amount of degranulation [7]: higher
